These results are taken from US8853215B2, “Derivatives of N-acyl-N′-phenylpiperazine useful (inter alia) for the prophylaxis or treatment of diabetes” (Takeda Pharmaceutical Company Limited, priority 2009, dated 2014).

The target in this assay is RBP4 (Rattus norvegicus (Rat), UniProt P04916). Kind of assay: Single administration test in Wistar fatty rats, plasma RBP4 by ELISA. It counts as in vivo. Conditions: male Wistar fatty rats, 10 mg/kg oral single dose, mean±SD. The protocol:
The action of the compounds of the present invention to lower plasma RBP4 level was evaluated using the animal model shown below.
Male Wistar fatty rats (fa/fa) were bred in Takeda Pharmaceutical Company Limited and maintained on normal diet (CE2, CLAE Japan, Inc.) and tap water. Animals were housed in a temperature-controlled room adjusted to a 12-hour light/12-hour dark cycle beginning at 7:00 and 19:00, respectively. All procedures were conducted according to the experimental animal care use committee of Takeda Pharmaceutical Company.
Male 13-43-week-old Wistar fatty rats were divided into groups randomly. Compounds were suspended in 0.5% (w/v) methylcellulose in water and given orally to Wistar fatty rats at a dose of 10 mg/10 mL/kg of body weight (3-5 rats per group). Blood samples were obtained from tail vein with sodium heparin as an anticoagulant at time 0 hr (just before the administration), 4 hr, 7 hr, and 24 hr after the administration, followed by plasma separation by centrifugation. Plasma RBP4 levels were measured by enzyme-linked immunosorbent assay described in the following section.
Plasma samples were analyzed in duplicate for RBP4 by an enzyme-linked immunosorbent assay. Mouse recombinant RBP4 (Takeda Pharmaceutical Company Limited) was used as standards, and the assay range was 0.313-20 ng/ml. Samples were diluted 10,000-fold with phosphate-buffered saline (PBS) (Sigma) containing 10% (w/v) BlockAce (Dainippon Sumitomo Pharma Co., Ltd). Rabbit anti-RBP4 polyclonal antibody (100 μL/well of 50 μg/mL, Hokudo Co, Ltd) was incubated in a 96-well plate (Nalge Nunc International K.K.) for overnight at 4° C. Subsequently, the plates were washed with PBS-T (Wako Pure Chemical Industries, Ltd.) and blocked with PBS containing 25% BlockAce for 1 hr at room temperature. After another washing with PBS-T, samples and standards were applied to the well, and the plates were incubated for 2 hr at room temperature. After a washing the wells, peroxidase-labeled (Dojindo Laboratories) anti-RBP4 (100 μL/well) was added to the wells, and then the plates were incubated for 1 hr at room temperature. After a final washing with PBS-T, substrate solution 3,3,5,5-tetramethylbenzidine (Sigma) was added to the wells, and the plates were placed in the dark for 5-20 min at room temperature. The reaction was stopped with 0.5 M sulphuric acid and the optical density was measured with a spectrophotometer at 450 nm. The changes in plasma RBP4 levels were expressed as % of initial/Control. All data are presented as mean±SD.
For orientation: ELISA stands for enzyme-linked immunosorbent assay.

With `CC(C)(C)c1ccccc1N1CCN(C(=O)C(=O)O)CC1` [Example 44, 2-[4-(2-tert-Butylphenyl)piperazin-1-yl]-2-oxoacetic acid], for the setting “0 hr (just before the administration)”, the “RBP4 (% of initial/Control) 0 hr” value is on record as 100.0 ± 13.8 % of initial/Control. In addition, the “RBP4 (% of initial/Control) 4 hr” value (4 hr after administration) was 59.6 ± 14.5 % of initial/Control. Further, under “7 hr after administration”, the “RBP4 (% of initial/Control) 7 hr” value is listed as 58.5 ± 5.6 % of initial/Control. Moreover, the “RBP4 (% of initial/Control) 24 hr” value (24 hr after administration) was 106.0 ± 16.1 % of initial/Control.
